The values that follow come from PMC12615753, “Glutathione as a taste modulator: molecular mechanisms of interaction with umami and sweet taste receptors” (Food Chemistry: Molecular Sciences, 2025).

What is called EC50 is the midpoint of the concentration-response curve.

Test [1] concerns the target T1, hTAS1R2/rTAS1R3(Mut2) (UniProt Q8TE23+Q923K1, L72W/P67S/S282A/Y281H).
T1 construct: The cDNA coding region of rTAS1R3 was synthesized with optimized-codon usage for human expression; expressed in transfected cells
As to the kind of experiment: Calcium assay, mutated rTAS1R3 co-expressed with hTAS1R2. Type of test: cell-based, human, rat.

The target in test [2] is T2, hTAS1R1 Q278Y/rTAS1R3 (Homo sapiens, UniProt Q7RTX1, Q278Y).
T2 construct: expressed in transfected cells; host or cells: HEK293T/17 (ATCC CRL-11268)
T2 sequence (Q7RTX1 21-841 Q278Y): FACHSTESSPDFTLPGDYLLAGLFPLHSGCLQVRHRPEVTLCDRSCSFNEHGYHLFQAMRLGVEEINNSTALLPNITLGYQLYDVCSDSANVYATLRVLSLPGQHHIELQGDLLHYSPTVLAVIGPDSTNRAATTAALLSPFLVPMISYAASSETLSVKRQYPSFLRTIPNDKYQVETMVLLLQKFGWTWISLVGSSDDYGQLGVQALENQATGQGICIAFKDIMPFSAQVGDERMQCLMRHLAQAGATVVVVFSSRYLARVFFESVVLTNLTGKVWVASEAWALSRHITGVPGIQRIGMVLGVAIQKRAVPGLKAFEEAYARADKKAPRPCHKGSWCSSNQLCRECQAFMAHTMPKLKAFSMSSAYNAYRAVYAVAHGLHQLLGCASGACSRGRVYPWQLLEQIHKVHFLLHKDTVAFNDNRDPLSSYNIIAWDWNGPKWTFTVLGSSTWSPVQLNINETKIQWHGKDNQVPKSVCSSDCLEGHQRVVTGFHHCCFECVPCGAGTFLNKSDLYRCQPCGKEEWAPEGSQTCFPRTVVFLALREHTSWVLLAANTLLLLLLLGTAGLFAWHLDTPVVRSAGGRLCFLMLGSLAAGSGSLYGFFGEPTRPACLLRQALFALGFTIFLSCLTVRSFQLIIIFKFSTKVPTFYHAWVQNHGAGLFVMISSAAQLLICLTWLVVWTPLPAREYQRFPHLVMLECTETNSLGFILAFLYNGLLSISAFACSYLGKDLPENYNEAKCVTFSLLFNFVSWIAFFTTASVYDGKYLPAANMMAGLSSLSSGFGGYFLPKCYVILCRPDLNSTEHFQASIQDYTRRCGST
T2 sequence (Q923K1 21-858 partner): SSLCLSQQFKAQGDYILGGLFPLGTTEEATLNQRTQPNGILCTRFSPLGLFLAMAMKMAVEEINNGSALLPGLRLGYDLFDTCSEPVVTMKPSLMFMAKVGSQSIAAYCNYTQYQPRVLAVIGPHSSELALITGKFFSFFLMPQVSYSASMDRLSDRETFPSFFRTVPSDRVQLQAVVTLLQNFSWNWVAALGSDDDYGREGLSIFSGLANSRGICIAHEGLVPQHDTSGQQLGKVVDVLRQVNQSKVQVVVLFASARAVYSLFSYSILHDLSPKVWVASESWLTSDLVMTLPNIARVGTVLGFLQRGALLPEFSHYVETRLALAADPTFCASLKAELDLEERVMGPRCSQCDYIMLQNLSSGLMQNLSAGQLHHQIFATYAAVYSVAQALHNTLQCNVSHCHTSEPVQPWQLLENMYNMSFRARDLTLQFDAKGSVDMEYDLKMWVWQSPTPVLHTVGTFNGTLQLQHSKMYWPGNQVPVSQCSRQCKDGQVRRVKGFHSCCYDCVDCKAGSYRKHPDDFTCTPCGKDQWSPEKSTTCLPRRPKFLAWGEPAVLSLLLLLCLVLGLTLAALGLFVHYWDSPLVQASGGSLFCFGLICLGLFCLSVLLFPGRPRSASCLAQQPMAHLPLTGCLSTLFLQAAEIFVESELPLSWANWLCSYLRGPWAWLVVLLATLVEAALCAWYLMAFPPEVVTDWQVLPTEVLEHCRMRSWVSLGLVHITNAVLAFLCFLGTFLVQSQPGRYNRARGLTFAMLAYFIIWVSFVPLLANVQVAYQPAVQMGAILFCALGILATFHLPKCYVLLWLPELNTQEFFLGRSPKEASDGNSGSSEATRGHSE
As to the kind of experiment: Calcium assay, hTAS1R1 mutant co-expressed with rTAS1R3. In kind it is cell-based, rat.

The test system of test [3] is CaSR. Particulars: ref Ohsu et al., 2010; cited from earlier work.
The target of test [4] is rTAS1R3 (Rattus norvegicus, UniProt Q923K1). The settings on record: GSH alone; Fig. 5C.
Procedure: (§1) HEK293T/17 cells (ATCC CRL-11268) were seeded into clear bottom black 96-well plates coated with poly-D-lysine at a density of 32500 cells/well in 100 μL of DMEM containing 4.5 g/L glucose and supplemented with penicillin/streptomycin, 2 mM GlutaMAX and 10 % dialyzed fetal bovine serum. The plates were incubated for 24 h at 37 °C and 7.3 % CO2 in a humidified atmosphere. After incubation, using Fugene® 4 K (0.46 μL/well, Promega, Illkirch, France), the cells were transiently transfected with pcDNA3-hTAS1R1-WT (60 ng/well) or TAS1R1 mutants, pcDNA4-rTAS1R3 (60 ng/well), pcDNA3-Gα15i2 (10 ng/well), and pGP-CMV-GCaMP6s (Addgene #40753; 10 ng/well) as a genetically encoded calcium indicator. […] After 20 s of basal fluorescence calcium measurement, the cells were stimulated via automatic injection of a range of compounds in eight wells, and the signal emission was recorded for an additional 70 s, via a FlexStation 3® fluorometric microplate reader (Molecular Devices, San Jose, CA, USA). […] The emitted fluorescence was measured at a wavelength of 510 nm after excitation at 488 nm. […] For each well, the decrease in the raw fluorescence as the relative fluorescence changed was calculated as ΔF/F0. Replicates were averaged for the wells subjected to the same stimuli, the background signal was subtracted, and the fluorescence changes in mock-transfected cells were subtracted. […]
The target in test [5] is hTAS1R3 (Homo sapiens, UniProt Q7RTX0). The settings on record: GSH alone; Fig. 5B.
Chain of hTAS1R3 (Q7RTX0 21-852): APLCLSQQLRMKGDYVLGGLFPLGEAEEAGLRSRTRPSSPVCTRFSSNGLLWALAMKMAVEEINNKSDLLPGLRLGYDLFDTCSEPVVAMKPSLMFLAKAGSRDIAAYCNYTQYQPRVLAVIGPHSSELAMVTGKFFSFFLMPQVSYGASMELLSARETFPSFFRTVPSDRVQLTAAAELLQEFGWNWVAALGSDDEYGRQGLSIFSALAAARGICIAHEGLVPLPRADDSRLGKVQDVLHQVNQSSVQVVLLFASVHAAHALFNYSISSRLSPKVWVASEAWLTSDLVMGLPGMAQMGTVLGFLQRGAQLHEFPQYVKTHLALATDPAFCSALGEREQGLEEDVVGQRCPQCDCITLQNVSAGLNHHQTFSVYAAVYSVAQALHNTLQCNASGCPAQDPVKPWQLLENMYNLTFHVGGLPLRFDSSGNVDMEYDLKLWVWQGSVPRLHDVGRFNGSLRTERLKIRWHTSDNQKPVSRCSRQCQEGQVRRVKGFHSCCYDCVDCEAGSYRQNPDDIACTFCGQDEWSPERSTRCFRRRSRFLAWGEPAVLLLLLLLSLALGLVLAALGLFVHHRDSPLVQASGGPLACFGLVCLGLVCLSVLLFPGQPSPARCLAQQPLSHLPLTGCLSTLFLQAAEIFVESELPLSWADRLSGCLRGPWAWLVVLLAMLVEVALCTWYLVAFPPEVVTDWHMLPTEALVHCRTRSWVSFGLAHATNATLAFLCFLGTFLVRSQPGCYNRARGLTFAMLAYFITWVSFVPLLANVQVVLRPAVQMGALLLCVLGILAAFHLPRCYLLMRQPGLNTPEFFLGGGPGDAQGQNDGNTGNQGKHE
Procedure: as §1

T1 sequence (Q8TE23 20-839): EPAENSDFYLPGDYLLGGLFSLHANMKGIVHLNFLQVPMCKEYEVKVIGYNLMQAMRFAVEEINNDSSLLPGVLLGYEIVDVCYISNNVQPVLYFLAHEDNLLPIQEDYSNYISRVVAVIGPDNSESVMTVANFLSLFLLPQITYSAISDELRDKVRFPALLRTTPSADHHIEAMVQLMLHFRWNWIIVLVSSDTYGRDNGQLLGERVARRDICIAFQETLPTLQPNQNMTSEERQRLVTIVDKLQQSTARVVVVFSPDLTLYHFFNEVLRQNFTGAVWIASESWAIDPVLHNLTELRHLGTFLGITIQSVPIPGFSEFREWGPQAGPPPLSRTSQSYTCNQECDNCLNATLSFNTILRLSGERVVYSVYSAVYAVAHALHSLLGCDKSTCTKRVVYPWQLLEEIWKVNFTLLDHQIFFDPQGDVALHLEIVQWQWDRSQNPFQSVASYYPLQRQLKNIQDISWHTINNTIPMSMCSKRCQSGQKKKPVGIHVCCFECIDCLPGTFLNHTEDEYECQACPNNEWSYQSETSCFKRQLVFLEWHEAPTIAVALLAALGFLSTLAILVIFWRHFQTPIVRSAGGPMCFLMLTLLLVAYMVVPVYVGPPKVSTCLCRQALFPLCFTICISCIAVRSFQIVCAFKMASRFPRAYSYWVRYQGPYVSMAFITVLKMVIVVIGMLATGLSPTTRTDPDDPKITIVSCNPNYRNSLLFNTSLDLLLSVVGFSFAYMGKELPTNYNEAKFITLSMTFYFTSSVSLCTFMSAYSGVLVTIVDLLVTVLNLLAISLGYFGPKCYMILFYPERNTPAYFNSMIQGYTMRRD
T1 sequence (Q923K1 21-858 P67S/L72W/Y281H/S282A): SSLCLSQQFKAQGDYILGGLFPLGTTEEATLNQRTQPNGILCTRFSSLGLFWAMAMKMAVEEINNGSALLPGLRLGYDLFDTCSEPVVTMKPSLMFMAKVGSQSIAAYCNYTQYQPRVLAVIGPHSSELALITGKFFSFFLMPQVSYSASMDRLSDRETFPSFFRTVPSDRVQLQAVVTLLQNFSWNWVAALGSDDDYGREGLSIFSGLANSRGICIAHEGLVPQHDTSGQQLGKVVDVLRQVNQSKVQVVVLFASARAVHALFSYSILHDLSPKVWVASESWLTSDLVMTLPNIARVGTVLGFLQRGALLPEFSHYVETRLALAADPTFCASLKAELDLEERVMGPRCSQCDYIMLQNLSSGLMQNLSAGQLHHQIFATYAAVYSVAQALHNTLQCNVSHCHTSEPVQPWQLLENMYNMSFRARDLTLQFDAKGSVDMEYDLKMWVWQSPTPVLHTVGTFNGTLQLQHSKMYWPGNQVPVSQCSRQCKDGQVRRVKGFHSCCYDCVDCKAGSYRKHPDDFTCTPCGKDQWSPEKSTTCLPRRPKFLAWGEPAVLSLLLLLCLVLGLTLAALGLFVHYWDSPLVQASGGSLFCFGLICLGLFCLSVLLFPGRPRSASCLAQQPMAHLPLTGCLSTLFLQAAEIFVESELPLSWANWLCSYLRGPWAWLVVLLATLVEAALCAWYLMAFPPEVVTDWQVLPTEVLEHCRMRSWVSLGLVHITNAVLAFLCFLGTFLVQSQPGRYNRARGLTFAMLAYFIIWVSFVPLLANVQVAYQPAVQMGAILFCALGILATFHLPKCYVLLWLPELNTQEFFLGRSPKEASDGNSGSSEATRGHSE

`OC[C@H]1O[C@H](O[C@]2(CCl)O[C@H](CCl)[C@@H](O)[C@@H]2O)[C@H](O)[C@@H](O)[C@H]1Cl` [sucralose, reference compound]: the EC50 in test [1] (sucralose alone, Fig. 4A) came to 493 ± 114 µM.

For `N[C@@H](CCC(=O)N[C@@H](CS)C(=O)NCC(=O)O)C(=O)O` [GSH, γ-L-glutamyl-L-cysteinyl-glycine], the EC50 was 3960 ± 1760 µM in test [2] and 0.71 µM in test [3]. Moreover, the “effect of the added compound (1 mM) on the response to L-Glu” value in test [2] (Q278Y) was “synergy was observed”. In addition, in test [2] (Q278Y, GSH), the “Max ∆F/F0” value was found to be 0.47 ± 0.07. The “R1 = mutant EC50/WT EC50” value in test [2] (Q278Y, GSH) came out at 1.6. Besides, the “effect of 10 mM GSH on the response to sucralose” value in test [1] is reported as “not increased”. The “response of transfected cells” value in test [4] and in test [5] was “did not respond” throughout.

Take `CCCC(CCC)NC(=O)c1ccc2c(c1)OCO2` [S807, N-(heptan-4-yl)benzo[d][1,3]dioxole-5-carboxamide, reference compound]: in test [2] (Q278Y), the “response to the agonist alone, vs WT” value is “strongly affected”.
